According to the NIST ThermoML archive (doi:10.1021/je501178z):
Several values for one entry are separate records, joined by “and”; a condition that tells them apart may be missing. Equal values may be shown once.

Experiment: mn = molality of the nth substance listed, in mol/kg
Details: 101.3 kPa, Liquid; for viscosity: Capillary tube (Ostwald / Ubbelohde) method; for mass density: Vibrating tube method

C[C@@H](O)[C@H](N)C(=O)O [L-threonine] + O
Details	mass density, 293.15 K [kg/m3]	mass density, 303.15 K [kg/m3]	mass density, 313.15 K [kg/m3]	mass density, 323.15 K [kg/m3]	viscosity, 293.15 K [mPa·s]	viscosity, 303.15 K [mPa·s]	viscosity, 313.15 K [mPa·s]	viscosity, 323.15 K [mPa·s]
m1 = 0.0999	1002.41	999.81	996.32	992.11	1.035	0.823	0.673	0.562
m1 = 0.1999	1006.56	1003.9	1000.37	996.12	1.072	0.849	0.693	0.579
m1 = 0.2999	1010.63	1007.92	1004.34	1000.05	1.107	0.876	0.714	0.595
m1 = 0.4002	1014.64	1011.87	1008.25	1003.93	1.145	0.905	0.736	0.613
m1 = 0.5	1018.55	1015.73	1012.07	1007.71	1.184	0.934	0.759	0.63
m1 = 0.6	1022.4	1019.52	1015.83	1011.44	1.225	0.965	0.782	0.649
m1 = 0.6998	1026.16	1023.24	1019.52	1015.1	1.269	0.996	0.806	0.667

N=C(N)NCCC[C@H](N)C(=O)O [L-arginine] + O
Details	mass density, 293.15 K [kg/m3]	mass density, 303.15 K [kg/m3]	mass density, 313.15 K [kg/m3]	mass density, 323.15 K [kg/m3]	viscosity, 293.15 K [mPa·s]	viscosity, 303.15 K [mPa·s]	viscosity, 313.15 K [mPa·s]	viscosity, 323.15 K [mPa·s]
m1 = 0.1	1003.17	1000.55	997.05	992.84	1.054	0.838	0.685	0.572
m1 = 0.2	1008	1005.3	1001.75	997.5	1.108	0.879	0.717	0.598
m1 = 0.3001	1012.68	1009.91	1006.31	1002.03	1.167	0.923	0.751	0.625
m1 = 0.4	1017.21	1014.38	1010.73	1006.41	1.23	0.97	0.788	0.654
m1 = 0.5	1021.6	1018.71	1015.01	1010.67	1.298	1.021	0.826	0.684
m1 = 0.6	1025.86	1022.9	1019.15	1014.8	1.362	1.069	0.864	0.714
m1 = 0.7	1030	1026.97	1023.18	1018.82	1.435	1.124	0.905	0.747

CC(C)[C@H](N)C(=O)O [L-valine] + O
Details	mass density, m1 = 0.1 [kg/m3]	mass density, m1 = 0.2001 [kg/m3]	mass density, m1 = 0.3001 [kg/m3]	mass density, m1 = 0.4002 [kg/m3]	mass density, m1 = 0.5 [kg/m3]	viscosity, m1 = 0.1 [mPa·s]	viscosity, m1 = 0.2001 [mPa·s]	viscosity, m1 = 0.3001 [mPa·s]	viscosity, m1 = 0.4002 [mPa·s]	viscosity, m1 = 0.5 [mPa·s]
293.15 K	1000.88	1003.51	1006.08	1008.6	1011.05	1.044	1.089	1.135	1.184	1.233
303.15 K	998.29	1000.88	1003.41	1005.89	1008.31	0.829	0.862	0.896	0.929	0.965
313.15 K	994.81	997.37	999.88	1002.33	1004.72	0.678	0.702	0.728	0.753	0.779
323.15 K	990.6	993.11	995.57	997.98	1000.34	0.565	0.585	0.604	0.624	0.644

C[C@H](N)C(=O)O [(S)-2-aminopropanoic acid] + O
Details	mass density, 293.15 K [kg/m3]	mass density, 303.15 K [kg/m3]	mass density, 313.15 K [kg/m3]	mass density, 323.15 K [kg/m3]	viscosity, 293.15 K [mPa·s]	viscosity, 303.15 K [mPa·s]	viscosity, 313.15 K [mPa·s]	viscosity, 323.15 K [mPa·s]
m1 = 0.1	1001.06	998.48	995.01	990.81	1.027	0.817	0.668	0.559
m1 = 0.2	1003.88	1001.27	997.76	993.55	1.053	0.837	0.684	0.571
m1 = 0.3	1006.66	1004.01	1000.47	996.24	1.079	0.856	0.7	0.584
m1 = 0.4002	1009.39	1006.71	1003.14	998.9	1.107	0.877	0.715	0.596
m1 = 0.5001	1012.06	1009.35	1005.76	1001.5	1.134	0.897	0.731	0.609
m1 = 0.6002	1014.69	1011.95	1008.33	1004.06	1.163	0.919	0.749	0.622
m1 = 0.6999	1017.27	1014.5	1010.86	1006.58	1.191	0.94	0.765	0.635

NCC(=O)O [2-aminoacetic acid] + O
Details	mass density, 293.15 K [kg/m3]	mass density, 303.15 K [kg/m3]	mass density, 313.15 K [kg/m3]	mass density, 323.15 K [kg/m3]	viscosity, 293.15 K [mPa·s]	viscosity, 303.15 K [mPa·s]	viscosity, 313.15 K [mPa·s]	viscosity, 323.15 K [mPa·s]
m1 = 0.1002	1001.41	998.8	–	991.11	1.015	0.809	0.663	0.555
m1 = 0.2	1004.57	1001.91	–	994.14	1.029	0.82	0.672	0.563
m1 = 0.3002	1007.7	1004.98	1001.42	997.14	1.042	0.831	0.681	0.571
m1 = 0.4001	1010.77	1008	1004.4	1000.09	1.057	0.842	0.691	0.579
m1 = 0.5001	1013.8	1010.98	1007.35	1003.01	1.072	0.855	0.701	0.587
m1 = 0.6	1016.78	1013.91	1010.25	1005.88	1.086	0.867	0.711	0.596
m1 = 0.6998	1019.71	1016.8	1013.11	1008.72	1.101	0.878	0.721	0.605

OC[C@@H](O)[C@@H](O)[C@H](O)[C@H](O)CO [D-mannitol] + O
Details	mass density, m1 = 0.2 [kg/m3]	mass density, m1 = 0.4	mass density, m1 = 0.6 [kg/m3]	mass density, m1 = 0.8 [kg/m3]	mass density, m1 = 1 [kg/m3]	viscosity, m1 = 0.2 [mPa·s]	viscosity, m1 = 0.4	viscosity, m1 = 0.6 [mPa·s]	viscosity, m1 = 0.8 [mPa·s]	viscosity, m1 = 1
293.15 K	1010.52	1022.31 kg/m3	1033.43	1043.98	1054.13	1.104	1.221 mPa·s	1.336	1.494	1.643 mPa·s
303.15 K	1007.82	1019.39 kg/m3	1030.35	1040.88	1050.85	0.874	0.959 mPa·s	1.044	1.151	1.262 mPa·s
313.15 K	1004.26	1015.71 kg/m3 and 1015.74 kg/m3	1026.6	1036.92	1046.79	0.711	0.775 mPa·s and 0.776 mPa·s	0.841	0.917	1.001 mPa·s and 1 mPa·s
323.15 K	999.96	1011.28 kg/m3	1022.09	1032.28	1042.15	0.592	0.642 mPa·s	0.693	0.752	0.814 mPa·s
